# Source: US10239832B2, “N-(1-hydroxy-3-(pyrrolidinyl)propan-2-yl)pyrrolidine-3-carboxamide derivatives as glucosylceramide synthase inhibitors” (BIOMARIN PHARMACEUTICAL INC., priority 2013, dated 2019)
# Target: T1, GCS (Canis lupus familiaris, UniProt A0A8I3MXG6)
# T1 construct: endogenous in cells; host or cells: MDCK (Madin-Darby canine kidney) cells, whole-cell lysate
# T1 sequence (A0A8I3MXG6 1-394): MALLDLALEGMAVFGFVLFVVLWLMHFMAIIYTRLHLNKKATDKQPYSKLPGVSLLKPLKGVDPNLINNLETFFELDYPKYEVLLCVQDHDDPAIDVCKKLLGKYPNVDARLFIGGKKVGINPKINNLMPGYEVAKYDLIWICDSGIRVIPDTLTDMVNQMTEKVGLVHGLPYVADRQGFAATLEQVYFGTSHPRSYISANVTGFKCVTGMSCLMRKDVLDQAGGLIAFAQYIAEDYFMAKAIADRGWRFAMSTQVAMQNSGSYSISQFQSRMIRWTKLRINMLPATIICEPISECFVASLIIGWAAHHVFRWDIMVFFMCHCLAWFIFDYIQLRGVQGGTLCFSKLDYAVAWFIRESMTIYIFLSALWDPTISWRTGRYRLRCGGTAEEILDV
# Assay: GCS enzymatic assay (MDCK cell lysate, NBD-ceramide to glucosylceramide, LC/MS)
# Format: biochemical, canine
# Conditions: Table 2; class symbols A, B, C; the table does not say which of the assays; read-out: Data Range (IC50 values)
# Procedure: This assay was modified based on the study by Larsen et al. (J. Lipid Res. 2011, 53, 282). Madin-Darby canine kidney (MDCK) cell lysate was prepared using M-PER Mammalian Protein Extraction Reagent (Thermal Scientific) in the presence of a protease inhibitor cocktail (Roche). Protein concentration was determined using BCA assay kit (Pierce). […] 0.1% DMSO was used as mock treatment or control. The reaction was terminated by adding 100 μL acetonitrile solution and subjected to LC/MS analysis.
# The quantitative analysis of NBD-Ceramide and glucosylceramide was performed on a Shimadzu ultra-fast liquid chromatography (Shimadzu, Japan) coupled with API 4000 triple quadrupole mass spectrometer (Applied Biosystems, Concord, Ontario, Canada). Sample separation was conducted on a Waters Xbridge™ BEH130 C18, 100 mm×4.6 mm i.d, 3.5 μm (Milford, Mass., USA). The mobile phase consisted of water and acetonitrile supplemented with 0.1% formic acid (v/v). The flow rate was 1.0 mL/min. The initial mobile phase was 20% acetonitrile and was ramped in a linear fashion to 50% acetonitrile in 0.4 min. From 0.4 to 1.5 min, the gradient was ramped to 98% acetonitrile, and then was held at […] until 8.0 min. Acetonitrile was reset to 20% in 1.5 min, and maintained until 10.0 min. The total run time was 10.0 min. The MS/MS detection was performed in ESI positive mode. The mass transition of NBD-Ceramide was m/z 576.36→558.40 under the collision energy of 15 V, and the mass transition of glucosylceramide was m/z 738.35→558.40 under 21V collision energy. The cell lysate was diluted with equal volume of acetonitrile. Aliquots of 50 μL diluted samples were added to 1.5 mL tubes, and 100 μL of acetonitrile containing internal standard (100 ng/mL tolbutamide) were added for protein precipitation. The mixture were vortexed and then centrifuged at 13000 rpm for 10 min. 70 μL of supernatant were mixed with 140 μL of H2O and the final solution were injected for LC/MS/MS analysis and IC50's and/or percent inhibitions calculated.
row,IC50 [nM],SMILES
1,30 to 100,"CC(C)(C)c1ccc(N2CC[C@@H](C(=O)N[C@H](CN3CCCC3)[C@H](O)c3cc(F)c4c(c3)OCCO4)C2)cc1 [Compound 142, (R)-1-(4-(tert-butyl)phenyl)-N-((1R,2R)-1-(8-fluoro-2,3-dihydrobenzo[b][1,4]dioxin-6-yl)-1-hydroxy-3-(pyrrolidin-1-yl)propan-2-yl)pyrrolidine-3-carboxamide]"
2,30 to 100,"O=C(N[C@H](CN1CCC1)[C@H](O)c1ccc(OC2CC2)cc1)[C@@H]1CCN(c2ccc3ccsc3c2)C1 [Compound 158, (R)-N-((1R,2R)-3-(azetidin-1-yl)-1-(4-cyclopropoxyphenyl)-1-hydroxypropan-2-yl)-1-(benzo[b]thiophen-6-yl)pyrrolidine-3-carboxamide]"
3,30 to 100,"O=C(N[C@H](CN1CCCC1)[C@H](O)c1ccc2c(c1)OCCO2)[C@H]1CCN(c2ccc(Cl)cc2)C1 [Compound 1D, (S)-1-(4-chlorophenyl)-N-((1R,2R)-1-(2,3-dihydrobenzo[b][1,4]dioxin-6-yl)-1-hydroxy-3-(pyrrolidin-1-yl)propan-2-yl)pyrrolidine-3-carboxamide]"
4,30 to 100,"CN1CCC(Oc2ccc([C@@H](O)[C@@H](CN3CCCC3)NC(=O)[C@@H]3CCN(c4ccc(Cl)cc4)C3)cc2Cl)CC1 [Compound 49, (R)-N-((1R,2R)-1-(3-chloro-4-((1-methylpiperidin-4-yl)oxy)phenyl)-1-hydroxy-3-(pyrrolidin-1-yl)propan-2-yl)-1-(4-chlorophenyl)pyrrolidine-3-carboxamide]"
5,1 to 30,"O=C(N[C@H](CN1CCCC1)[C@H](O)c1ccc(OC2CCOCC2)c(Cl)c1)[C@@H]1CCN(c2ccc(Cl)cc2)C1 [Compound 45, (R)-N-((1R,2R)-1-(3-chloro-4-((tetrahydro-2H-pyran-4-yl)oxy)phenyl)-1-hydroxy-3-(pyrrolidin-1-yl)propan-2-yl)-1-(4-chlorophenyl)pyrrolidine-3-carboxamide]"
6,1 to 30,"O=C(N[C@H](CN1CCCC1)[C@H](O)c1ccc2c(c1)OCCO2)C1CCN(c2ccc(Cl)cc2Cl)C1 (stereo in doubt) [Compound 12, (R)-1-(2,4-dichlorophenyl)-N-((1R,2R)-1-(2,3-dihydrobenzo[b][1,4]dioxin-6-yl)-1-hydroxy-3-(pyrrolidin-1-yl)propan-2-yl)pyrrolidine-3-carboxamide]"
7,30 to 100,"O=C(N[C@H](CN1CCCC1)[C@H](O)c1ccc2c(c1)OCCO2)C1CCN(c2ccc3ccsc3c2)C1 (stereo partly drawn) [Compound 53C, 1-(benzo[b]thiophen-6-yl)-N-((1R,2R)-1-(2,3-dihydrobenzo[b][1,4]dioxin-6-yl)-1-hydroxy-3-(pyrrolidin-1-yl)propan-2-yl)pyrrolidine-3-carboxamide]"
8,1 to 30,"O=C(N[C@H](CN1CCCC1)[C@H](O)c1cc(F)c2c(c1)OCCO2)[C@@H]1CCN(c2ccc(Cl)c(-c3ccc(F)cc3)n2)C1 [Compound 144, (R)-1-(5-chloro-6-(4-fluorophenyl)pyridin-2-yl)-N((1R,2R)-1-(8-fluoro-2,3-dihydrobenzo[b][1,4]dioxin-6-yl)-1-hydroxy-3-(pyrrolidin-1-yl)propan-2-yl)pyrrolidine-3-carboxamide]"
9,1 to 30,"O=C(N[C@H](CN1CCCC1)[C@H](O)c1ccc(OC2CC2)c(Cl)c1)[C@@H]1CCN(c2ccc(F)cc2)C1 [Compound 96, (R)-N-((1R,2R)-1-(3-chloro-4-cyclopropoxyphenyl)-1-hydroxy-3-(pyrrolidin-1-yl)propan-2-yl)-1-(4-fluorophenyl)pyrrolidine-3-carboxamide]"
10,1 to 30,"CC(C)(O)COc1ccc([C@@H](O)[C@@H](CN2CCCC2)NC(=O)[C@@H]2CCN(c3ccc4cc(F)ccc4c3)C2)cc1Cl [Compound 102, (R)-N-((1R,2R)-1-(3-chloro-4-(2-hydroxy-2-methylpropoxy)phenyl)-1-hydroxy-3-(pyrrolidin-1-yl)propan-2-yl)-1-(6-fluoronaphthalen-2-yl)pyrrolidine-3-carboxamide]"

# Same assay, conditions: Table 2; class symbols D, E, F, NA (not active); the table does not say which of the assays
row,SMILES,Data Range (% inhibition)
1,"Cc1cc(N2CC[C@@H](C(=O)N[C@H](CN3CCCC3)[C@H](O)c3ccc4c(c3)OCCO4)C2)cc(C)n1 [Compound 82, (R)-N-((1R,2R)-1-(2,3-dihydrobenzo[b][1,4]dioxin-6-yl)-1-hydroxy-3-(pyrrolidin-1-yl)propan-2-yl)-1-(2,6-dimethylpyridin-4-yl)pyrrolidine-3-carboxamide]",NA (not active—a negative value was generated for % inhibition)
2,"O=C(N[C@H](CN1CCCCC1)[C@H](O)c1ccc(OC2CC2)c(Cl)c1)[C@@H]1CCN(c2ccc(Cl)cc2)C1 [Compound 66, (R)-N-((1R,2R)-1-(3-chloro-4-cyclopropoxyphenyl)-1-hydroxy-3-(piperidin-1-yl)propan-2-yl)-1-(4-chlorophenyl)pyrrolidine-3-carboxamide]",F (1-49% (or less than 50%))
3,"O=C(N[C@H](CN1CCCC1)[C@H](O)c1ccc2c(c1)OCCO2)[C@@H]1CCN(c2ccc3nccnc3c2)C1 [Compound 83, (R)-N-((1R,2R)-1-(2,3-dihydrobenzo[b][1,4]dioxin-6-yl)-1-hydroxy-3-(pyrrolidin-1-yl)propan-2-yl)-1-(quinoxalin-6-yl)pyrrolidine-3-carboxamide]",F (1-49% (or less than 50%))
4,"O=C(N[C@H](CN1CCCC1)[C@H](O)c1ccc(OCC(F)(F)F)nc1)[C@@H]1CCN(c2ccc(Cl)cc2)C1 [Compound 33, (R)-1-(4-chlorophenyl)-N-((1R,2R)-1-hydroxy-3-(pyrrolidin-1-yl)-1-(6-(2,2,2-trifluoroethoxy)pyridin-3-yl)propan-2-yl)pyrrolidine-3-carboxamide]",F (1-49% (or less than 50%))
5,"CCCCN1CCC(C(=O)N[C@H](CN2CCCC2)[C@H](O)c2ccc3c(c2)OCCO3)C1 (stereo partly drawn) [Compound 30, 1-butyl-N-((1R,2R)-1-(2,3-dihydrobenzo[b][1,4]dioxin-6-yl)-1-hydroxy-3-(pyrrolidin-1-yl)propan-2-yl)pyrrolidine-3-carboxamide]",NA (not active—a negative value was generated for % inhibition)
6,"O=C(N[C@H](CN1CCCC1)[C@H](O)c1cc(F)c2c(c1)OCCO2)[C@@H]1CCN(C(=O)c2ccccc2)C1 [Compound 120, (R)-1-benzoyl-N-((1R,2R)-1-(8-fluoro-2,3-dihydrobenzo[b][1,4]dioxin-6-yl)-1-hydroxy-3-(pyrrolidin-1-yl)propan-2-yl)pyrrolidine-3-carboxamide]",F (1-49% (or less than 50%))

# The next lines start with the values.
row,Data Range (% inhibition),SMILES
1,F (1-49% (or less than 50%)),"O=C(N[C@H](CN1CCCC1)[C@H](O)c1ccc2c(c1)OCCO2)[C@H]1CCN(c2ccc3ccccc3n2)C1 [Compound 72B, (S)-N-((1R,2R)-1-(2,3-dihydrobenzo[b][1,4]dioxin-6-yl)-1-hydroxy-3-(pyrrolidin-1-yl)propan-2-yl)-1-(quinolin-2-yl)pyrrolidine-3-carboxamide]"
2,E (50-74% (or less than 75%)),"O=C(N[C@H](CN1CCCC1)[C@H](O)c1ccc(OC2CCOCC2)c(Cl)c1)[C@H]1CCN(c2ccc3cc(F)ccc3c2)C1 [Compound 50A, (S)-N-((1R,2R)-1-(3-chloro-4-((tetrahydro-2H-pyran-4-yl)oxy)phenyl)-1-hydroxy-3-(pyrrolidin-1-yl)propan-2-yl)-1-(6-fluoronaphthalen-2-yl)pyrrolidine-3-carboxamide]"
3,E (50-74% (or less than 75%)),"O=C(N[C@H](CN1CCCC1)[C@H](O)c1ccc(OC2CC2)c(Cl)c1)[C@H]1CCN(c2ccc3ccccc3c2)C1 [Compound 67C, (S)-N-((1R,2R)-1-(3-chloro-4-cyclopropoxyphenyl)-1-hydroxy-3-(pyrrolidin-1-yl)propan-2-yl)-1-(naphthalen-2-yl)pyrrolidine-3-carboxamide]"
4,E (50-74% (or less than 75%)),"O=C(N[C@H](CN1CCCC1)[C@H](O)c1cc(F)c2c(c1)OCCO2)[C@H]1CCN(c2ccc3cc(F)ccc3c2)C1 [Compound 52A, (S)-N-((1R,2R)-1-(8-fluoro-2,3-dihydrobenzo[b][1,4]dioxin-6-yl)-1-hydroxy-3-(pyrrolidin-1-yl)propan-2-yl)-1-(6-fluoronaphthalen-2-yl)pyrrolidine-3-carboxamide]"
